Results on six molecules are retold here after patent US20160039897A1, “COMPOUNDS AND METHODS FOR TREATING OBESITY AND CONTROLLING WEIGHT” (THE UNIVERSITY OF NORTH CAROLINA AT CHAPEL HILL, priority 2013, published 2016).

“Also recorded” adds a separate entry of the source. No end group written: not given here. mPEG‑maleimide = methoxy-PEG maleimide (couples to the cysteine thiol)

Assay [1] concerns primary preadipocytes from IGFBP-2−/− mice. In words: Differentiation of primary preadipocytes (immunoblot of adiponectin, aP2, PPARγ; Oil Red O staining). The following applies: for effect on differentiation marker expression / preadipocyte differentiation (in words): peptides 6 μg/ml, IGFBP-2 proteins 3 μg/ml, IGF-I 100 ng/ml, in differentiation medium; for % suppression of adiponectin: mean±SE, N=3; for relative potency as inhibitor of adipogenesis / preadipocyte differentiation (in words): comparison between peptides and proteins, immunoblot and Oil Red O. It counts as cell-based, mouse. As for the experimental part:
Primary preadipocytes were isolated from epididymal fat pads of 6 week old IGFBP-2^−/− mice. The cells were cultured using a previously described method (Boney, C M et al., 1994). The fat pads were weighed and the tissue was digested with an equal volume (W/V) of collagenase type A (Roche Applied Science, Indianapolis, Ind.) in HEPES buffer (0.1M and 1.5% BSA) for 45 min at 37° C. Following complete digestion, the preadipocytes were separated from the stromal vascular cells by centrifugation at 500×g for 5 min. The pelleted cells were washed with DMEM containing 30 mM glucose (Gibco, Grand Island, N.Y.) and passed through a 100 μm mesh filter (BD Biosciences, Bedford, Mass.). The cells were then plated in 6-well plates (Falcon Corp., Franklin Lakes, N.J.) at a density of 1.2-1.5×10^4 cells/ml in DMEM containing 30 mM glucose supplemented with penicillin (100 U/ml), streptomycin (100 μg/ml), and 10% fetal bovine serum hereafter referred to as standard medium. The cultures had the medium changed every 2 days until they reached confluency. Two day post-confluent cells were then exposed to differentiation medium (serum free DMEM containing 0.5 mM IBMX, 1 μM dexamethasone, and 5 μg/mL insulin) and incubated for 2 days. Experimental treatments that were added to this medium included either wild type IGFBP-2 (3 μg/ml), HBD1 peptide (6 μg/ml), HBD1 control peptide (6 μg/ml), HBD2 peptide (6 μg/ml), HBD2 control peptide (6 μg/ml), HBD1 mutant IGFBP-2 (3 μg/ml) or the HBD2 mutant IGFBP-2 (3 μg/ml). Cultures were maintained for two additional days in the standard medium supplemented with 5 μg/ml insulin. Thereafter, the cultures were kept in the fresh standard medium without insulin for additional two days.
After treatment, the cells were rinsed with PBS for two times and fixed with 10% formalin for 30 min at room temperature. After rinsing with distilled water for twice, 100% propylene glycol (Poly Scientific, Bay Shore, N.Y.) was added and incubated for 5 min. Before adding Oil Red O solution (Poly Scientific, Bay Shore, N.Y.), propylene glycol was removed. The cultures were incubated for 10 min at 60° C. Removing Oil Red O solution, the cultures were incubated with 80% propylene glycol for 5 min, After incubation, the cultures were rinsed with tap water twice. Images were captured using an Olympus IX81 inverted microscope.
Differentiated adipocytes were lysed in ice-cold lysis buffer (Xi et al., 2008). After centrifugation at 14,000×g for 10 min, solubilized proteins were quantified by the Bradford method (Thermo Scientific, Rockford, Ill.). Equal protein amounts of lysates were loaded onto a SDS-polyacrylamide gel and the proteins were separated, then transferred to an Immobilon filter and visualized by immunoblotting using the appropriate antibody. The primary antibody dilutions that were used were 1:1000 for the anti-adiponectin antibody (Affinity BioReagents, Golden, Colo.), 1:500 for the anti-PPARγ antibody (Cell Signaling Technology Inc., Beverly, Mass.), 1:2000 for the anti-apt antibody (ProSci Inc., Poway, Calif.) and 1:5000 for the anti-β-actin antibody (Sigma Chemical Company, St. Louis, Mo.). The immune complexes were visualized using enhanced chemiluminescence (Thermo Fischer Scientific, Rockford, Ill.).
Preadipocytes were prepared from mice and grown in culture as described herein. The respective mouse and human peptides were added to cells and the cells were lysed and the lysates were run on SDS gels as described. Immunoblotting for adiponectin was carried as described. Three concentrations of each peptide, 0.7, 2.0 and 6.0 μg/ml, were compared. The results were expressed as % suppression mean±SE(N=3) and were as follows.
Cell culture of primary preadipocytes. Preadipocytes were isolated from epididymal fat pads of IGFBP-2^−/− mice. The cultures had the medium changed every 2 days until they reached confluency. […]
(Immunoblotting shows a protein as a band on a membrane.)

In assay [2] the test system is IGFBP-2−/− mice. In words: Body composition (fat and lean mass) by EchoMRI at weeks 0 and 12. It counts as in vivo, mouse. The following applies: weeks 0 to 12; pegylated peptide 50 μg IP 3 times/week; mean±SE. As for the experimental part: (§1) Body fat and lean muscle mass was measured at weeks 0 and 12 of treatment by magnetic resonance imaging analysis (EchoMRI-100, Echo Medical Systems, Houston, Tex.), a technique that measures fat mass and lean mass in unanesthetized animals (Kelly S A, et. al., 2010). After completion of 12 weeks of treatment, the mice were sacrificed. Blood was collected by cardiac puncture and allowed to sit for 4 hours before centrifuging at 3500 rpm×15 min. The serum was aspirated and stored at −20° C. until analysis. Abdominal inguinal and visceral fat pads were carefully dissected from each animal according to defined anatomical landmarks. All subcutaneous fat between the lower part of the rib cage and the upper thigh was considered abdominal subcutaneous inguinal fat, whereas all fat found along the mesentery starting at the lesser curvature of the stomach and ending at the sigmoid colon was considered visceral fat. Fat depots were blotted dry prior to weighing. The right inguinal fat pad was dissected separately and the triglyceride content of this tissue was determined by a colorimetric analysis (Pointe Scientific, Canton, Mich.), as previously described (Dann H, Kimura S 1992). Serum adiponectin and leptin were measured by ELISA following manufacturer's instructions (Millipore, Billerica, Mass.).
(§2) Body composition and serum adipokine measurement. Body fat and lean mass were measured at weeks 0 and 12 of treatment by magnetic resonance imaging analysis (EchoMRI-100, Echo Medical Systems, Houston, Tex.), using unanesthetized animals. After 12 weeks of treatment, the mice were sacrificed and blood was collected by cardiac puncture and centrifuged at 3500 rpm×15 min. The serum was stored at −20° C. Abdominal inguinal and visceral fat pads were dissected from each animal according to defined anatomical landmarks. Subcutaneous fat between the rib cage and the upper thigh was termed subcutaneous inguinal fat, whereas all fat from the lesser curvature of the stomach to the sigmoid colon was termed visceral fat. Fat depots were blotted dry prior to weighing. The right inguinal fat pad was dissected separately and the triglyceride content of this tissue was determined by a calorimetric analysis (Pointe Scientific, Canton, Mich. Serum adiponectin and leptin were measured by ELISA following manufacturer's instructions (Millipore, Billerica, Mass.).

Assay [3] relates to IGFBP-2−/− mice. Put plainly: Inguinal and visceral fat pad, liver and heart weights at sacrifice. The following applies: after 12 weeks; pegylated peptide 50 μg IP 3 times/week; mean±SE. It is filed as in vivo, mouse. The procedure:
as §1, §2

The subject of assay [4] is ovariectomized C57B6 normal mice (IGFBP-2 +/+). Put plainly: Body composition MRI analysis in ovariectomized genetically normal mice. The following applies: for Fat / Body weight: 2.5 mg/kg. It counts as in vivo, mouse. The procedure:
Experiments were conducted in which the HBD-2 peptide was administered to genetically normal, ovariectomized mice to determine if it would induce fat loss. The purpose of this experiment was to determine if the peptide could alter fat mass in ovariectomized mice. Estrogen deficient mice are known to gain fat mass following removal of the ovaries. Since the peptide had not been tested in an animal model that had not been genetically manipulated and since it had not been tested in a condition wherein fat mass had been acquired previously to determine if it could reduce pre-existing fat mass this experiment was undertaken. The experimental design was as follows.
(§3) There were 8 mice in each treatment group. C57B6 normal mice underwent ovaryectomy at age 8 weeks. They were then maintained on a normal Chow diet (6% fat) for three weeks. At that time they were treated with 2.5 mg/kg of the active peptide injected subcutaneously two days per week for four weeks. The peptide is the pegylated HBD-2 peptide described herein,
(§4) A second treatment group that had also undergone ovariectomy was treated with the identical concentration of a control peptide that contained the same amino acids but in a scrambled order. A third group underwent sham surgery wherein an incision was made and then closed and the ovaries were not removed. For comparison the response of mice that had had the IGF BP-2 gene deleted were treated in the same manner.
(§5) Eight mice underwent and were treated with the active peptide for four weeks as described for the normal animals. Eight additional mice received the control peptide and eight mice received the sham procedure. The animals were weighed weekly. After 4 weeks they underwent MRI analysis to determine body composition. Both lean mass and fat mass were quantified and the percent fat as a percent total body weight was determined mathematically.

The subject of assay [5] is ovariectomized IGFBP-2 −/− mice. In words: Body composition MRI analysis in ovariectomized IGFBP-2 knockout mice. The following applies: IGFBP-2 −/− OVX mice, 2.5 mg/kg sc two days per week for four weeks; for Fat: 2.5 mg/kg. It counts as in vivo, mouse. As for the experimental part: as §3, §4, §5
Where [6] appears, read: IGFBP-2 +/+ OVX mice, 2.5 mg/kg sc two days per week for four weeks, MRI.

“CKPLRLSKEEHPLK [HBD1 control peptide, scrambled HBD1 peptide, reference compound]”: the “effect on differentiation marker expression / preadipocyte differentiation (in words)” value in assay [1] is recorded as “had no effect”.
As for “IGF-I: insulin-like growth factor-I added at 100 ng/ml to differentiation medium [reference compound]”, the “effect on differentiation marker expression / preadipocyte differentiation (in words)” value in assay [1] is listed as “no additional effect on cell differentiation”.
Consider “KHGRYNLKQCKMSLNGQR [Mouse, mouse IGFBP-2 HBD2 peptide]”, for which the “% suppression of adiponectin” value is recorded as 51.2 ± 8.1% in assay [1] (0.7 μg/ml peptide), 85.6 ± 11.4% in assay [1] (2.0 μg/ml peptide) and 95.5 ± 9.9% in assay [1] (6.0 μg/ml peptide). Moreover, in assay [1], the “relative potency as inhibitor of adipogenesis / preadipocyte differentiation (in words)” value was “equipotent”.
Consider “Peg HBD2: HBD2 peptide with added cysteine (CKHGLYNLKQCKMSLNGQR), pegylated with methoxy PEG maleimide (C(mPEG‑maleimide)KHGLYNLKQCKMSLNGQR)”, for which, in the assay on IGFBP-2−/− mice [2], the Fat mass increase came to 0.58 ± 0.12 g. In the assay on IGFBP-2−/− mice [2], this molecule had a Lean mass increase of 3.10 ± 0.57 g. The molecule also had an Inguinal fat in the assay on IGFBP-2−/− mice [3] of 0.23 ± 0.02 g. Further, the Visceral fat in the assay on IGFBP-2−/− mice [3] was 0.25 ± 0.02 g. Also, the figures for the Fat % in assay [4] (setting [6]) and in assay [5] (MRI) were 19.42 ± 1.1% and 18.75 ± 1.0%, respectively. Further, the Lean in assay [4] (setting [6]) amounted to 17.40 ± 0.3 g; in assay [5] (MRI) it was 16.97 ± 0.4 g. Moreover, the figures for the Total in assay [4] (setting [6]) and in assay [5] (MRI) were 21.65 ± 0.6 g and 20.90 ± 0.8 g, respectively. The Fat in assay [4] (IGFBP-2 +/+ OVX mice, 2.5 mg/kg sc two days per week for four weeks, MRI, listed as HBD) is listed as 4.0 ± 0.4 g; in assay [4] (IGFBP-2 +/+ OVX mice, 2.5 mg/kg sc two days per week for four weeks, MRI, listed as active peptide) it was 4.0 g; in assay [5] (MRI), 3.85 g; in assay [5] (MRI, listed as HBD(pept)), 3.85 ± 0.4 g. The Body weight in assay [4] (IGFBP-2 +/+ OVX mice, 2.5 mg/kg sc two days per week for four weeks, listed as HBD) worked out at 23.0 ± 0.8 g; in assay [4] (IGFBP-2 +/+ OVX mice, 2.5 mg/kg sc two days per week for four weeks, listed as active peptide), 23.0 g; in assay [5], 21.95 ± 0.8 g. In addition, the “body weight and total fat mass (in words)” value in assay [4] (OVX mice, after four weeks of treatment) is listed as “significantly decreased”.
Turning to “RKGFYKRKQCKPSRGRKR [HBD2 control peptide, reference compound]”, the “effect on differentiation marker expression / preadipocyte differentiation (in words)” value in assay [1] is given as “did not affect their expression; also recorded: did not alter their expression”.

B1: native IGFBP-2: native (wild type) insulin-like growth factor binding protein-2; FIG. 2 legend says wild type bovine IGFBP-2 (protein, UniProt P13384 34-317, looked up)
Insulin-like growth …: EVLFRCPPCTPESLAACKPPPGAAAGPAGDARVPCELVREPGCGCCSVCARLEGERCGVYTPRCGQGLRCYPNPGSELPLRALVHGEGTCEKHGDAEYSASPEQVADNGEEHSEGGLVENHVDGNVNLMGGGGGAGRKPLKSGMKELAVFREKVTEQHRQMGKGGKHHLGLEEPKKLRPPPARTPCQQELDQVLERISTMRLPDERGPLEHLYSLHIPNCDKHGLYNLKQCKMSLNGQRGECWCVNPNTGKLIQGAPTIRGDPECHLFYNEQQGARGVHTQRMQ
As to B1, in assay [1], the “relative potency as inhibitor of adipogenesis / preadipocyte differentiation (in words)” value is “most potent inhibitors of adipogenesis” and the “effect on differentiation marker expression / preadipocyte differentiation (in words)” value was “inhibited preadipocyte differentiation into mature adipocytes”.
